Experiments:
Format in all cases: in vivo
[1] = tested on: Rice Sheath Blight Disease (Rhizoctonia solani); assay: Rice sheath blight disease control effect test; details: chemical solution 50 ppm active ingredient sprayed on rice seedlings, then inoculated with bran medium culture; lesion height examined after 5 days
Text: (§1) [in the formula, N represents the total number of examined leaves, n0 represents the number of leaves having a disease severity index of 0, n1 represents the number of leaves having a disease severity index of 1, n2 represents the number of leaves having a disease severity index of 2, n3 represents the number of leaves having a disease severity index of 3, and n4 represents the number of leaves having a disease severity index of 4.]
[Test Example 3] Rice Sheath Blight Disease (Rhizoctonia solani) Control Effect Test
Rice seeds were sown in a pot, and a chemical solution was sprayed on the grown seedlings so that the concentration of the active ingredient was 50 ppm. Thereafter, a bran medium in which a rice sheath blight fungi was cultured was inoculated into the strain, the bran medium was transferred to a wet room, and invasion of pathogens was promoted. Thereafter, the pot was managed in a greenhouse, after 5 days, a lesion height was examined according to the criteria in Table 221 to determine a degree of disease severity by a calculation formula of Equation 1, and a control value was determined by a calculation formula of Equation 2.

[2] = tested on: Soybean Rust (Phakopsora pachyrhizi); assay: Soybean rust control effect test; details: sprayed on soybean seedlings at 100 g a.i./ha, then spray-inoculated; disease severity of first leaf examined after 12 to 14 days
Text: [Test Example 1] Soybean Rust (Phakopsora pachyrhizi) Control Effect Test
Soybean seeds were sown in a pot and sprayed on the grown seedlings so that the amount of the active ingredient was 100 g a.i./ha. Thereafter, a soybean rust fungus was spray-inoculated, the pot was transferred to a wet room and was kept under dark conditions, and invasion of pathogens was promoted. Thereafter, the pot was managed in a greenhouse, after 12 to 14 days, a degree of disease severity for each first leaf was examined according to the criteria in Table 226 to determine a degree of disease severity by a calculation formula of Equation 1, and a control value was determined by a calculation formula of Equation 2.
as §1

[3] = tested on: Wheat rust (Puccinia recondita); assay: Wheat rust control effect test; details: chemical solution 50 ppm active ingredient sprayed on wheat seedlings, then spray-inoculated; first leaf examined after 9 days
Text: as §1
[Test Example 2] Wheat rust (Puccinia recondita) control effect test Wheat seeds were sown in a pot, and a chemical solution was sprayed on the grown seedlings so that the concentration of the active ingredient was 50 ppm. Thereafter, a wheat rust fungus was spray-inoculated, the pot was transferred to a wet room and was kept under dark conditions, and invasion of pathogens was promoted. Thereafter, the pot was managed in a greenhouse, after 9 days, a degree of disease severity for each first leaf was examined according to the criteria in Table 220 to determine a degree of disease severity by a calculation formula of Equation 1, and a control value was determined by a calculation formula of Equation Formula 2.

Structure (SMILES): CCC(=O)N(Cc1ccccc1)c1ccc(-c2noc(C(F)(F)F)n2)cc1 [comparative compound]
- control value [1]: ≤ 12.5
- control value [2]: less than 60
- control value [3]: ≤ 12.5

— US20240358020A1, “FORMAMIDE DERIVATIVE AND AGRICULTURAL OR HORTICULTURAL PLANT DISEASE CONTROL AGENT” (Kumiai Chemical Industry Co., Ltd., priority 2021, published 2024)
